Patent US10414763B2 (CANCER RESEARCH TECHNOLOGY LIMITED, priority 2014, dated 2019)

The molecules below were run against T1, full-length human PKCι (Homo sapiens, UniProt P41743) (assay: PKCι IC50 IMAP fluorescence polarisation assay, full-length enzyme, 150 μM ATP). Settings: read-out: IC50 in IMAP assay against full length PKCi at 150 μM ATP.
T1 construct: Recombinant, full-length human PKCι expressed in Sf21 insect cells is also commercially available; purchased EMD Millipore; host or cells: Sf21 insect cells (baculovirus)
T1 sequence (P41743 1-596): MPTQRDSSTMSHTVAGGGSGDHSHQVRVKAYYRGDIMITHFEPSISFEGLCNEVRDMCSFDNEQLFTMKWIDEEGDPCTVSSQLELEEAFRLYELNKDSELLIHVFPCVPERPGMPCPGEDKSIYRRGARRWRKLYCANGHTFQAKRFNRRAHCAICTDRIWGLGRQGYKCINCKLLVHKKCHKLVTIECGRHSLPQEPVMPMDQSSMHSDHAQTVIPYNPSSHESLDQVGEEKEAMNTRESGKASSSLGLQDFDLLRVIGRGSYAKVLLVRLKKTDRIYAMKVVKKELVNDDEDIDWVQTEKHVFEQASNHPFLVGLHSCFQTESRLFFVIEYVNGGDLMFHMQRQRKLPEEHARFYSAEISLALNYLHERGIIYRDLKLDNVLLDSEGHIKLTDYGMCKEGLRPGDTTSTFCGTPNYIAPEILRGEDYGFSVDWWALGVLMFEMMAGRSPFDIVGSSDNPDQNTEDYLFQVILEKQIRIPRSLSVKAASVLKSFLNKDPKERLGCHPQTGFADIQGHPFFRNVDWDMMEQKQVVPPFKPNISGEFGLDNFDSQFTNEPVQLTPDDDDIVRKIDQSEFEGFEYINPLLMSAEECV
Type: biochemical
Summary of the method: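 IMAP fluorescence polarisation kinase assay: 15 pM baculovirus-expressed human PKCiota with 100 nM FAM-pseudosubstrate peptide and 150 μM ATP, 1 h at 25 °C. IMAP detection reagent then 2 h at 25 °C before FP measurement. Inhibition referenced to no-compound and no-enzyme controls for IC50 fitting.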

SMILES | IC50 [nM]
c1ccc(-n2cnc(Nc3cc(-c4nc(N5CCC6CNCCC65)c5c(C6CC6)cncc5n4)ccn3)n2)cc1 (stereo not shown) [Example 235, [4-[5-Cyclopropyl-4-(octahydro-pyrrolo[3,2-c]pyridin-1-yl)-pyrido[3,4-d]pyrimidin-2-yl]-pyridin-2-yl}-(1-phenyl-1H-1,2,4-triazol-3-yl)-amine] | < 100
O[C@]12CCN(c3nc(-c4ccnc(Nc5ncn(-c6ccccc6)n5)c4)nc4cncc(C5CC5)c34)[C@H]1CCNC2 [Example 236] | < 100
c1ccc(Cn2cnc(Nc3cc(-c4nc(N5CCC6CNCCC65)c5c(C6CC6)cncc5n4)ccn3)n2)cc1 (stereo not shown) [Example 239, (1-Benzyl-1H-1,2,4-triazol-3-yl)-{4-[5-cyclopropyl-4-(octahydro-pyrrolo[3,2-c]pyridin-1-yl)-pyrido[3,4-d]pyrimidin-2-yl]-pyridin-2-yl}-amine] | < 100
CC1(C)CNCC[C@@H]1Nc1nc(-c2ccnc(Nc3nc4ccccn4n3)c2)nc2cncc(C3CC3)c12 [Example 241, [5-Cyclopropyl-2-[2-([1,2,4]triazolo[1,5-a]pyridin-2-ylamino)-pyridin-4-yl]-pyrido[3,4-d]pyrimidin-4-yl}-((S)-3,3-dimethyl-piperidin-4-yl)-amine] | < 100
CC1(C)CNCC[C@@H]1Nc1nc(-c2ccnc(Nc3ncn(Cc4ccccc4)n3)c2)nc2cncc(C3CC3)c12 [Example 242, {2-[2-(1-Benzyl-1H-1,2,4-triazol-3-ylamino)-pyridin-4-yl]-5-cyclopropyl-pyrido[3,4-d]pyrimidin-4-yl}-((S)-3,3-dimethyl-piperidin-4-yl)-amine] | < 100
CC1(C)CNCC[C@@H]1Nc1nc(-c2ccnc(Nc3ncn(-c4ccccc4)n3)c2)nc2cncc(C3CC3)c12 [Example 243, {5-Cyclopropyl-2-[2-(1-phenyl-1H-1,2,4-triazol-3-ylamino)-pyridin-4-yl]-pyrido[3,4-d]pyrimidin-4-yl}-((S)-3,3-dimethyl-piperidin-4-yl)-amine] | < 100
c1ccn2nc(Nc3cc(-c4nc(N5CCC6NCCCC65)c5c(C6CC6)cncc5n4)ccn3)nc2c1 (stereo not shown) [Example 244, {4-[5-Cyclopropyl-4-(octahydro-pyrrolo[3,2-b]pyridin-1-yl)-pyrido[3,4-d]pyrimidin-2-yl]-pyridin-2-yl}-[1,2,4]triazolo[1,5-a]pyridin-2-yl-amine] | < 100
c1ccc(-n2cnc(Nc3cc(-c4nc(N5CCC6NCCCC65)c5c(C6CC6)cncc5n4)ccn3)n2)cc1 (stereo not shown) [Example 245, {4-[5-Cyclopropyl-4-(octahydro-pyrrolo[3,2-b]pyridin-1-yl)-pyrido[3,4-d]pyrimidin-2-yl]-pyridin-2-yl}-(1-phenyl-1H-1,2,4-triazol-3-yl)-amine] | < 100
NC[C@@H]1CCN(c2nc(-c3ccnc4[nH]c5ccccc5c34)nc3cncc(C4CCC4)c23)C1 [Example 248, C-{(S)-1-[5-Cyclobutyl-2-(9H-pyrido[2,3-b]indol-4-yl)-pyrido[3,4-d]pyrimidin-4-yl]-pyrrolidin-3-yl}-methylamine] | < 100
NC[C@H]1CCN(c2nc(-c3ccnc4[nH]c5ccccc5c34)nc3cncc(C4CCC4)c23)C1 [Example 249, C-{(R)-1-[5-Cyclobutyl-2-(9H-pyrido[2,3-b]indol-4-yl)-pyrido[3,4-d]pyrimidin-4-yl]-pyrrolidin-3-yl}-methylamine] | < 100
c1ccc2c(c1)[nH]c1nccc(-c3nc(N4CCC5(CCCNC5)C4)c4c(C5CCC5)cncc4n3)c12 (stereo not shown) [Example 250, 4-[5-Cyclobutyl-4-(2,7-diaza-spiro[4.5]dec-2-yl)-pyrido[3,4-d]pyrimidin-2-yl]-9H-pyrido[2,3-b]indole] | < 100
c1ccc2c(c1)[nH]c1nccc(-c3nc(NCC4COCCN4)c4c(C5CCC5)cncc4n3)c12 (stereo not shown) [Example 251, [5-Cyclobutyl-2-(9H-pyrido[2,3-b]indol-4-yl)-pyrido[3,4-d]pyrimidin-4-yl]-morpholin-3-ylmethyl-amine] | 1000 to 10000
O[C@@H]1CCN(c2nc(-c3ccnc4[nH]c5ccccc5c34)nc3cncc(C4CCC4)c23)C1 [Example 252, (R)-1-[5-Cyclobutyl-2-(9H-pyrido[2,3-b]indol-4-yl)-pyrido[3,4-d]pyrimidin-4-yl]-pyrrolidin-3-ol] | 1000 to 10000
O[C@H]1CCN(c2nc(-c3ccnc4[nH]c5ccccc5c34)nc3cncc(C4CCC4)c23)C1 [Example 253, (S)-1-[5-Cyclobutyl-2-(9H-pyrido[2,3-b]indol-4-yl)-pyrido[3,4-d]pyrimidin-4-yl]-pyrrolidin-3-ol] | 1000 to 10000
CC1(C)CNCC[C@@H]1Nc1nc(-c2ccnc(Nc3c(F)cccc3F)c2)nc2cncc(C3CC3)c12 [Example 254, {5-Cyclopropyl-2-[2-(2,6-difluoro-phenylamino)-pyridin-4-yl]-pyrido[3,4-d]pyrimidin-4-yl}-((S)-3,3-dimethyl-piperidin-4-yl)-amine] | < 100
CC1(C)CNCC[C@@H]1Nc1nc(-c2ccnc(Nc3c(F)cccc3F)c2)nc2cncc(C3CCC3)c12 [Example 255, {5-Cyclobutyl-2-[2-(2,6-difluoro-phenylamino)-pyridin-4-yl]-pyrido[3,4-d]pyrimidin-4-yl}-((S)-3,3-dimethyl-piperidin-4-yl)-amine] | < 100
Fc1ccc(F)c(Nc2cc(-c3nc(N4CCOC5CNCC54)c4c(C5CCC5)cncc4n3)ccn2)n1 (stereo not shown) [Example 256, {4-[5-Cyclobutyl-4-(hexahydro-pyrrolo[3,4-b]-1,4-oxazin-4-yl)-pyrido[3,4-d]pyrimidin-2-yl]-pyridin-2-yl}-(3,6-difluoro-pyridin-2-yl)-amine] | < 100
Cc1cc2c(-c3nc(N4CCOC5CNCC54)c4c(C5CCC5)cncc4n3)ccnc2[nH]1 (stereo not shown) [Example 257, 5-Cyclobutyl-4-(hexahydro-pyrrolo[3,4-b]-1,4-oxazin-4-yl)-2-(2-methyl-1H-pyrrolo[2,3-b]pyridin-4-yl)-pyrido[3,4-d]pyrimidine] | < 100
Fc1cccc(F)c1Nc1cc(-c2nc(N3CCOC4CNCC43)c3c(C4CCC4)cncc3n2)ccn1 (stereo not shown) [Example 258, {4-[5-Cyclobutyl-4-(hexahydro-pyrrolo[3,4-b]-1,4-oxazin-4-yl)-pyrido[3,4-d]pyrimidin-2-yl]-pyridin-2-yl}-(2,6-difluoro-phenyl)-amine] | < 100
Fc1cccnc1-c1cc2c(-c3nc(N4CCOC5CNCC54)c4c(C5CCC5)cncc4n3)ccnc2[nH]1 (stereo not shown) [Example 259, 5-Cyclobutyl-2-[2-(3-fluoro-pyridin-2-yl)-1H-pyrrolo[2,3-b]pyridin-4-yl]-4-(hexahydro-pyrrolo[3,4-b]-1,4-oxazin-4-yl)-pyrido[3,4-d]pyrimidine] | < 100
CC1CC(Nc2nc(-c3ccnc(Nc4ncccc4F)c3)nc3cncc(C4CC4)c23)CC(C)N1 (stereo not shown) [Example 260, {5-Cyclopropyl-2-[2-(3-fluoro-pyridin-2-ylamino)-pyridin-4-yl]-pyrido[3,4-d]pyrimidin-4-yl}-(2,6-dimethyl-piperidin-4-yl)-amine] | 100 to 1000
CC1(C)CNCC[C@@H]1Nc1nc(-c2ccnc(Nc3cccnc3)c2)nc2cncc(C3CCC3)c12 [Example 264, 5-cyclobulyl-N-[(4S)-3,3-dimethyl-4-piperidyl]-2-[2-(3-pyridylamino)-4-pyridyl]pyrido[3,4-d]pyrimidin-4-amine] | < 100
